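GI50 = concentration required for 50% inhibition of growth. TGI denotes the concentration required for complete inhibition of growth.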
What was measured:
Assay in all cases: NCI-60 cell line screen, 384-well format
ACHN renal = test system: ACHN renal
BT-549 breast = test system: BT-549 breast
COLO 205 colon = test system: COLO 205 colon
HCT-116 colon = test system: HCT-116 colon
HT29 colon = test system: HT29 colon
LOX IMVI melanoma = test system: LOX IMVI melanoma
NCI-H23 lung = test system: NCI-H23 lung
NCI-H322M lung = test system: NCI-H322M lung
OVCAR-5 ovarian = test system: OVCAR-5 ovarian
SN12C renal = test system: SN12C renal
T-47D breast = test system: T-47D breast
UACC-257 melanoma = test system: UACC-257 melanoma
UO-31 renal = test system: UO-31 renal

SMILES | GI50 (ACHN renal) [µM] | TGI (ACHN renal) [µM] | GI50 (BT-549 breast) [µM] | TGI (BT-549 breast) [µM] | GI50 (COLO 205 colon) [µM] | TGI (COLO 205 colon) [µM] | GI50 (HCT-116 colon) [µM] | TGI (HCT-116 colon) [µM] | GI50 (HT29 colon) [µM] | TGI (HT29 colon) [µM] | GI50 (LOX IMVI melanoma) [µM] | TGI (LOX IMVI melanoma) [µM] | GI50 (NCI-H23 lung) [µM] | TGI (NCI-H23 lung) [µM] | GI50 (NCI-H322M lung) [µM] | TGI (NCI-H322M lung) [µM] | GI50 (OVCAR-5 ovarian) [µM] | TGI (OVCAR-5 ovarian) [µM] | GI50 (SN12C renal) [µM] | TGI (SN12C renal) [µM] | further results
CNCc1ccccc1-c1csc([C@@H](C)Nc2nc(C)nc3cc(OC)c(OC)cc23)c1 | 1.51 | 2.84 | 1.25 | 2.5 | 1.59 | 2.94 | 1.29 | 2.56 | 1.56 | 2.91 | 1.65 | 3.01 | 1.25 | 2.54 | 1.21 | 2.48 | 1.51 | 2.86 | 1.03 | 2.2 | GI50 (T-47D breast): 1.13 µM; TGI (T-47D breast): 2.34 µM; GI50 (UACC-257 melanoma): 0.275 µM; TGI (UACC-257 melanoma): 0.81 µM; GI50 (UO-31 renal): 1.52 µM; TGI (UO-31 renal): 2.85 µM
Cc1cc(Nc2ccc(NC(=O)c3ccc(Nc4ccnc5ccccc45)cc3)cc2)nc(N)n1 | 11.2 | 31 | 0.49 | 1.12 | 0.206 | 0.352 | 0.2 | 0.413 | 0.319 | 0.815 | 0.166 | 0.308 | 1.01 | 2.84 | 0.418 | 1.26 | 1.85 | 3.74 | 1.22 | 2.48 | GI50 (T-47D breast): 0.192 µM; TGI (T-47D breast): 0.334 µM; GI50 (UACC-257 melanoma): 0.556 µM; TGI (UACC-257 melanoma): 1.56 µM; GI50 (UO-31 renal): 33.8 µM; TGI (UO-31 renal): > 100 µM

Source: PubChem BioAssay (NCI)
